Results: patent US20170342025A1, “ANTIMICROBIAL COMPOUNDS, COMPOSITIONS AND METHODS” (Swansea University, priority 2014, published 2017)
Read-outs that look alike come from different tables or passages of the source.

Key:
[1] = tested on: methicillin-resistant staphylococcus aureus (MRSA) strain EMRSA-15; assay: MIC against MRSA strain EMRSA-15; format: cell-based
Method: (§1) Minimum Inhibitory Concentrations (MICs) for the compounds prepared were determined against Escherichia coli (strain JM109) and Staphylococcus aureus (strain 9518) using the protocols described by Andrews (J. Antimicrob. Chemother., 2001, 48, Suppl. S1, 5-16).
(§2) In addition, three compounds were tested against methicillin-resistant staphylococcus aureus (MRSA) strains MRSA-III (ST239) and EMRSA-15.

[2] = tested on: Escherichia coli (strain JM109); assay: MIC determination against Escherichia coli (Andrews protocol); format: cell-based; conditions: Escherichia coli, read-out: MIC E. coli
Method: as §1

[3] = tested on: Staphylococcus aureus (strain 9518); assay: MIC determination against Staphylococcus aureus (Andrews protocol); format: cell-based; conditions: Staphylococcus aureus, read-out: MIC S. aureus
Method: as §1

[4] = tested on: methicillin-resistant staphylococcus aureus (MRSA) strain MRSA-III (ST239); assay: MIC against MRSA strain MRSA-III (ST239); format: cell-based; conditions: read-out: MIC against MRSA-III
Method: as §1, §2

[5] = second MRSA strain, text names EMRSA-15, read-out: MIC against MRSA-1
[6] = Staphylococcus aureus strain 9518

SMILES	MIC ([1]; MRSA, read-out: MIC against MRSA-1)	MIC [2]	MIC [3]	MIC ([4]; MRSA)	MIC [1, 5]	MIC ([2]; Escherichia coli strain JM109)	MIC [3, 6]	MIC ([4]; MRSA-III (ST239))	melting point
N=C(N)NCc1cccc(OCc2cccc(C(F)(F)F)c2Cl)c1.O=C(O)C(F)(F)F [Compound 4L, 1-[(3-{[2-chloro-3-(trifluoromethyl)phenyl]methoxy}phenyl)methyl]guanidine 2,2,2-trifluoroacetate]	1 to 10 µg/mL	1 to 10 µg/mL	10 to 32 µg/mL	1 to 10 µg/mL	–	–	–	–	–
N=C(N)NCc1ccc(OCc2cccc(Cl)c2Cl)cc1.O=C(O)C(F)(F)F [Compound 19e, 1-(4-((2,3-dichlorobenzyl)oxy)benzyl)guanidine 2,2,2-trifluoroacetate]	–	–	–	–	1 to 10 µg/mL	1 to 10 µg/mL	10 to 32 µg/mL	1 to 10 µg/mL	–
CC(=O)O.N=C(N)NN=Cc1cccc(OCc2cccc(Cl)c2Cl)c1 [Compound 49a, 1-[({3-[(2,3-dichlorophenyl)methoxy]phenyl}methylidene)amino]guanidine acetate]	–	–	–	–	1 to 10 µg/mL	1 to 10 µg/mL	1 to 10 µg/mL	1 to 10 µg/mL	159 to 160 °C
Cl.N=C(N)N/N=C/c1cccc(OCc2ccc(Cl)c(Cl)c2)c1Cl [Compound 51h, (E)-Amino(2-(2-chloro-3-((3,4-dichlorobenzyl)oxy)benzylidene)hydrazinyl) methaniminium chloride]	–	–	–	–	–	1 to 10 µg/mL	1 to 10 µg/mL	–	230 to 233 °C
Cl.N=C(N)N/N=C/c1cccc(OCc2cc(Cl)cc(Cl)c2Cl)c1Cl [Compound 51i, (E)-Amino(2-(2-chloro-3-((2,3,5-trichlorobenzyl)oxy)benzylidene)hydrazinyl) methaniminium chloride]	–	–	–	–	–	32 to 100 µg/mL	32 to 100 µg/mL	–	273 to 276 °C
CC(=O)O.N=C(N)N/N=C/c1cccc(OCc2cccc(C(F)(F)F)c2)c1Cl [Compound 51j, (E)-Amino(2-(2-chloro-3-((3-(trifluoromethyl)benzyl)oxy)benzylidene)hydrazinyl) methaniminium acetate]	–	–	–	–	–	1 to 10 µg/mL	1 to 10 µg/mL	–	183 to 187 °C
Cl.N=C(N)N/N=C/c1cccc(OCc2ccc(C(F)(F)F)cc2)c1Cl [Compound 51k, (E)-Amino(2-(2-chloro-3-((4-(trifluoromethyl)benzyl)oxy)benzylidene)hydrazinyl) methaniminium chloride]	–	–	–	–	–	10 to 32 µg/mL	10 to 32 µg/mL	–	245 to 247 °C
